Test results: US20210222184A1, “COMPOSITIONS AND METHODS FOR EXPRESSING TRANSGENES USING REGULATORY ELEMENTS FROM RUBISCO ACTIVASE GENES” (DOW AGROSCIENCES LLC, priority 2018, published 2021)

Legend:
[1] = test system: tagRFP/AAD12 reporter gene; experiment: N. benthamiana leaf infiltration transient assay, RFP fluorescence; type: in vivo; settings: for RFP Mean / RFP Median: Typhoon scanner fluorescence, leaves collected 6th day after infiltration, co-infiltrated with P19 silencing suppressor strain
From the text: Twenty four day old plants were used for infiltration.

GFP = GFP driven by AtUbi10/AtuOrf23 in both constructs; Typhoon scanner, 6th day after infiltration
Protocol: N. benthamiana plants were grown in the greenhouse under 16 hour photoperiod, 27° C./24° C. Twenty four day old plants were used for infiltration. The 3-4 top-most leaves were infiltrated using two Agrobacterium strains. The first strain was used in all infiltrations and carried the pDAB112236 construct expressing P19 silencing suppressor (Silhavy et al, (2002), EMBO J, 21, 3070-3080). The second Agrobacterium strain was either the experimental strain carrying pDAB116647 (SEQ ID NO:12) or a strain carrying the control pDAB110167 binary vector (FIG. 6). The pDAB110167 was identical to the pDAB116647 (SEQ ID NO:12) except that it had the reporter tagRFP/AAD12 fusion gene driven by the ScBV (Sugar Cane Bacilliform Virus) promoter fused to the Maize Streak Virus (MSV) 5′ leader engineered to contain maize Alcohol dehydrogenaseI (AdhI) gene intron 6 was paired with the StPinII terminator fragment (abbreviated ScBV/StPinII) to drive expression of the tagRFP/AAD12 reporter gene.
For N. benthamiana leaf infiltrations Agrobacterium strains containing either the pDAB116647 or pDAB110167 were mixed in equal proportions with an Agrobacterium strain that carried a plasmid that contained a gene encoding the P19 silencing suppressor Voinnet et al, (1999), Proc Natl Acad Sci USA, 96, 14147-14152. The mixing ratios were based on Optical Density (OD) readings. The density of all Agrobacterium cultures was adjusted to OD 2.0. After infiltration plants were maintained in a Conviron until leaves were collected on the 6th day after infiltration. Fluorescence data were collected using a Typhoon scanner from 30 leaves per construct with 3-5 one inch disks per leaf.
All samples from N. benthamiana were scanned on 3 channels: chlorophyll (488 nm blue laser, 670 nm BP30, 580 nm split), GFP (488 nm blue laser, 520 nm BP40, 580 nm split), and tagRFP (532 nm green laser, 580 nm BP30). The PhotoMultiplier Tube (PMT) setting used for N. benthamiana was 340/340/400. Background adjustments were made by subtracting calculated means for non-treated and empty vector controls from test treatment values. The values from each leaf were averaged to generate a mean fluorescence value.

[2] = test system: transgenic soybean plants; experiment: 2,4-D herbicide tolerance of T1 transgenic soybean plants; type: in vivo, Glycine max; settings: 2240 g ae/ha 2,4-D foliar
From the text: To assess T1 Soybean Herbicide Tolerance, T1 seed generated from self-pollination of single copy T0 events were planted in an artificial soil mix (MetroMix 360™) contained in 4-inch square pots. The T1 generation is a segregating population of the homozygous, hemizygous and non-transgenic plants. To eliminate the null individuals, the T1 population received a foliar application of 411 g active ingredient (ai)/ha glufosinate ammonium (Liberty® 280) when plants reached the first trifoliate leaf stage. Four days after application (DAA) surviving plants were sampled for molecular analysis to determine transgene zygosity and to confirm transgene copy number.
For each event, 8 homozygous and 8 hemizygous plants were sampled for protein analyses, and the following day (third trifoliate stage), half of the plants received a foliar application of 2240 g acid equivalent (ae)/ha 2,4-D dimethylamine (DMA) salt (Weedar® 64). The remaining plants received no spray application. Some plants were also sprayed with deionized water as a sprayer application control. In addition to the transformed events, the soybean variety, ‘Maverick’, was included in each treatment as a non-transformed control.
Foliar applications were made with a Mandel track sprayer set to deliver a spray solution at 187 L/ha to a spray area of 0.503 m^2 using an 8002E nozzle and a spray height of 18 inches above the plant canopy. Plant response to the 2,4-D application was evaluated at 5 hours after application (HAA) and 1, 7, and 14 DAA. Data were collected by assessment of visual injury and/or growth reduction as compared to untreated controls on a scale of 0% to 100% with 0% corresponding to no injury or growth reduction and 100% corresponding to complete plant death. Plants were maintained at 28° C./25° C. (day/night) under a 14 h photoperiod and sub-irrigated with water or fertilizer as needed.

Row | Substance | RFP Mean [1] | RFP Median [1] | GFP Mean (GFP) | GFP Median (GFP) | % Injury Mean 1 DAA ([2]; Hemi) | % Injury Mean 5 HAA ([2]; Hemi) | % Injury Mean 7 DAA ([2]; Hemi) | % Injury Mean 14 DAA ([2]; Hemi) | % Injury Mean 1 DAA ([2]; Homo) | % Injury Mean 5 HAA ([2]; Homo) | % Injury Mean 7 DAA ([2]; Homo) | % Injury Mean 14 DAA ([2]; Homo) | RFP fluorescence relative to the control (pDAB110167) construct ([1]; mean and median, p-Value <0.0001)
1 | pDAB110167: control binary vector; tagRFP/AAD12 driven by ScBV promoter, MSV 5' leader with AdhI intron 6, StPinII terminator [reference compound] | 24746396 | 21007653 | 166966846 | 148985095 |  |  |  |  |  |  |  |  | 
2 | pDAB116632: plasmid with GmRubAct promoter and 5' UTR fused to AAD12 gene, terminated with GmRubAct terminator |  |  |  |  | 18.13% | 15.0% | 4.38% | 3.75% | 12.0% | 8.67% | 2.33% | 1.67% | 
3 | pDAB116647: binary vector with tagRFP/AAD12 reporter gene driven by GmRubAct promoter, 5' UTR and terminator | 40982229 | 39409305 | 161956091 | 156309149 |  |  |  |  |  |  |  |  | significantly higher
